Experimental data reported in US20240207421A1, “NERVE TARGETING PEPTIDES AND METHODS OF USE” (ALUME BIOSCIENCES, INC., priority 2020, published 2024).

Columns and labels:
[1] = test system: excised human nerve tissue (or nerve extracts); assay: Phage display library screening (Example 2), NEB tissue-binding peptides: nerve tissue and nerve extracts versus muscle; details: unique sequence count, peptides not binding muscle extracts; for Count Excised Nerve: tissue target: excised nerve; for Count Nerve Extract: tissue target: nerve extract; for Count Neuron: tissue target: neuron
Experimental: (§1) Phage display library screens were used to identify peptides that bind to target proteins (including specific laminin trimers) that are expressed in human nerves, as described in Table 3. These screens were also carried out to identify peptides that could bind selectively to nerves versus muscle. Such peptides could therefore be useful for systemic in-vivo labeling of nerves during fluorescence assisted surgery. Specifically, m 13 phage libraries expressing 7 or 12 random amino acid peptides, or a cyclic peptide CX7C, on the N-terminus of the minor coat protein pIII (New England Biolabs; NEB) were processed through multiple rounds of selection for binding to target proteins expressed in nerves, or to excised human nerves, nerve extracts, or muscle, as described further below.
To identify peptides selective for nerves versus muscle, phage from the same libraries used for specific target proteins were used to screen against excised human nerve tissue (or nerve extracts) and human muscle tissue.
Excised Nerve Tissue: Phage were processed through multiple cycles of selection, with representative phage being isolated and sequenced after each selection cycle. Specifically, for selection using human nerve tissue, a sample of […] tissue (2 mm by 2 mm) was washed prior to mixing and incubation with a phage library. After incubation, the mixture (containing mostly intact nerves with phage particles that had variable affinity for nerves) was centrifuged and the nerve pellet washed multiple times with PBS to remove phage with little or no affinity for nerve tissue. The pellet was homogenized and plated for titering and reamplification. Phage that were bound at each round were sequenced. NextGen sequencing of pools after 2, 3 and 4 rounds of selection were used to isolate candidate sequences that were further analyzed using bioinformatics.
Nerve Extracts: Phage libraries were incubated for up to 24 hours at 4° C. in 96 well plates that had been coated with a human nerve extract. Plates were then washed with PBS and phage were eluted using 0.2M glycine pH 2.0. Phage supernatants where then neutralized with Tris pH 9.0 prior to plating on TG1 bacteria and LB agar plates. Colonies were counted to determine titer followed by DNA preparation of pools of phage and NextGen sequencing. After rounds of selection, phage were pooled and amplified for iterative selection. Phage that eluted by 0.2M glycine pH 2.0 (the nerve binders) at each round were sequenced. NextGen sequencing of pools after 2, 3 and 4 rounds of selection were used to isolate candidate sequences that were further analyzed using bioinformatics.
Muscle Tissue: Phage were processed through multiple cycles of selection, with representative phage being isolated and sequenced after each selection cycle. Specifically, for selection using human skeletal muscle tissue, a sample of skeletal muscle tissue (2 mm by 2 mm) was washed prior to mixing and incubation with a phage library. After incubation, the mixture (containing mostly intact muscle with phage particles that had variable affinity for muscle) was centrifuged and the muscle pellet washed multiple times with PBS to remove phage with little or no affinity for muscle tissue. The pellet was then homogenized and plated for titering and reamplification. Phage that were bound at each round were sequenced. NextGen sequencing of pools after 2, 3 and 4 rounds of selection were used to isolate candidate sequences that were further analyzed using bioinformatics.
For all NEB sequence datasets, a python script was used to translate, trim, and filter the peptide sequences (see details above). A python script was used to group peptides from different assays according to tissue target (muscle, nerve, neuron, or nerve extract) and combine the unique sequence counts for each peptide. […]

Laminin 421/521 = assay: Phage display library screening (Example 2), NEB laminin-binding peptides; set-up: species or system human; details: Laminin 421/521, not 211 and 411; combined unique sequence count, Python/R script analysis
Experimental: as §1
For screening against the specified target proteins in Table 1, including LN211, LN411, LN421, and LN521, the phage library was processed by up to 4 binding and wash cycles. For selection, phage libraries were incubated for up to 24 hours at 4° C. in 96 well plates that had been coated with one of the target proteins. Plates were then washed with PBS and phage were eluted using 0.2M glycine pH 2.0. Phage supernatants where then neutralized with Tris pH 9.0 prior to plating on TGI bacteria and LB agar plates. Colonies were counted to determine titer followed by DNA preparation of pools of phage and NextGen sequencing. After rounds of selection, phage were pooled and amplified for iterative selection. Phage that were bound at each round were sequenced. NextGen sequencing of pools after 2, 3 and 4 rounds of selection was used to isolate candidate sequences that were analyzed further to identify those that specifically bound each unique target protein.
For all NEB sequence datasets, a python script was used to translate, trim, and filter the peptide sequences (see details above). A python script was used to group peptides from different assays according to laminin complex binding (laminin complex 211, 411, 421, or 521) and combine the unique sequence counts for each peptide. An R script was written to merge the peptide sequences from different data files and determine peptides that specifically bind one laminin complex and not the others, or that bind both laminin 421 and 521 but not 211 and 411.

Substance: AFRFEFQVPDSH
- Count Excised Nerve [1]: 7
- Count Nerve Extract [1]: 18
- Count Neuron [1]: 11

Substance: AIMSYNSPWIQG
- Count Excised Nerve [1]: 9
- Count Nerve Extract [1]: 17
- Count Neuron [1]: 8

Substance: ALNHNGPVKTGL
- Count Excised Nerve [1]: 10
- Count Nerve Extract [1]: 16
- Count Neuron [1]: 6

Substance: DASQYPLVSGLW
- Count Excised Nerve [1]: 10
- Count Nerve Extract [1]: 16
- Count Neuron [1]: 6

Substance: DELVGGAPWYKS
- Count Excised Nerve [1]: 20
- Count Nerve Extract [1]: 27
- Count Neuron [1]: 7

Substance: DRGLTILTDDLR
- Count Excised Nerve [1]: 27
- Count Nerve Extract [1]: 34
- Count Neuron [1]: 7

Substance: DVMQMFHQVHFY
- Count Excised Nerve [1]: 10
- Count Nerve Extract [1]: 17
- Count Neuron [1]: 7

Substance: EESNAKLELLSR
- Count Excised Nerve [1]: 12
- Count Nerve Extract [1]: 26
- Count Neuron [1]: 14

Substance: EFARFRVFGVAE
- Count Excised Nerve [1]: 22
- Count Nerve Extract [1]: 30
- Count Neuron [1]: 8

Substance: EIIVMSGSNVTN
- Count Excised Nerve [1]: 9
- Count Nerve Extract [1]: 15
- Count Neuron [1]: 6

Substance: EMVPMKFLMMAK
- Count Excised Nerve [1]: 8
- Count Nerve Extract [1]: 14
- Count Neuron [1]: 6

Substance: EPWQSRDKVIEE
- Count Excised Nerve [1]: 8
- Count Nerve Extract [1]: 16
- Count Neuron [1]: 8

Substance: FDPLSRNVPHKT
- Count Excised Nerve [1]: 16
- Count Nerve Extract [1]: 22
- Count Neuron [1]: 6

Substance: GHAHSLTQNPLF
- Count Excised Nerve [1]: 10
- Count Nerve Extract [1]: 18
- Count Neuron [1]: 8

Substance: GLLREPDELMFL
- Count Excised Nerve [1]: 18
- Count Nerve Extract [1]: 27
- Count Neuron [1]: 9

Substance: GLTIMSSRHSLQ
- Count Excised Nerve [1]: 12
- Count Nerve Extract [1]: 18
- Count Neuron [1]: 6

Substance: GLWDGKGRIVEV
- Count Excised Nerve [1]: 9
- Count Nerve Extract [1]: 16
- Count Neuron [1]: 7

Substance: GMRTGDDSPKYP
- Count Excised Nerve [1]: 14
- Count Nerve Extract [1]: 21
- Count Neuron [1]: 7

Substance: GTALNLQKDINK
- Count Excised Nerve [1]: 6
- Count Nerve Extract [1]: 12
- Count Neuron [1]: 6

Substance: GTVSYMVKMDNN
- Count Excised Nerve [1]: 9
- Count Nerve Extract [1]: 16
- Count Neuron [1]: 7

Substance: GWANSITYRNLY
- Count Excised Nerve [1]: 17
- Count Nerve Extract [1]: 26
- Count Neuron [1]: 9

Substance: GWNEATNSARHT
- Count Excised Nerve [1]: 26
- Count Nerve Extract [1]: 32
- Count Neuron [1]: 6

Substance: GWQMFPPMQNTR
- Count Excised Nerve [1]: 10
- Count Nerve Extract [1]: 50
- Count Neuron [1]: 40

Substance: HGIVFSKRPFSN
- Count Excised Nerve [1]: 12
- Count Nerve Extract [1]: 23
- Count Neuron [1]: 11

Substance: HSGAYTIQASYK
- Count Excised Nerve [1]: 9
- Count Nerve Extract [1]: 15
- Count Neuron [1]: 6

Substance: IPGQTPRMPHSK
- Count Excised Nerve [1]: 8
- Count Nerve Extract [1]: 21
- Count Neuron [1]: 13

Substance: KTTSMTALTMGL
- Count Excised Nerve [1]: 9
- Count Nerve Extract [1]: 21
- Count Neuron [1]: 12

Substance: LQTHSITYRHER
- Count Excised Nerve [1]: 7
- Count Nerve Extract [1]: 19
- Count Neuron [1]: 12

Substance: MLKMERPGRMAY
- Count Excised Nerve [1]: 9
- Count Nerve Extract [1]: 15
- Count Neuron [1]: 6

Substance: MLRHVDLTEPNA
- Count Excised Nerve [1]: 7
- Count Nerve Extract [1]: 13
- Count Neuron [1]: 6

Substance: NAVHRPDLNLLA
- Count Excised Nerve [1]: 15
- Count Nerve Extract [1]: 22
- Count Neuron [1]: 7

Substance: NGMNWLQVHQLS
- Count Excised Nerve [1]: 12
- Count Nerve Extract [1]: 18
- Count Neuron [1]: 6

Substance: NRIGHGTATGTL
- Count Excised Nerve [1]: 22
- Count Nerve Extract [1]: 28
- Count Neuron [1]: 6

Substance: NTEYSRYTSIWK
- Count Excised Nerve [1]: 8
- Count Nerve Extract [1]: 14
- Count Neuron [1]: 6

Substance: NYAVGDRITKNI
- Count Excised Nerve [1]: 18
- Count Nerve Extract [1]: 25
- Count Neuron [1]: 7

Substance: QANLYYWDPSDL
- Count Excised Nerve [1]: 8
- Count Nerve Extract [1]: 17
- Count Neuron [1]: 9

Substance: QNIVENFIDNER
- Count Excised Nerve [1]: 20
- Count Nerve Extract [1]: 27
- Count Neuron [1]: 7

Substance: QRATNDILIRGW
- Count Excised Nerve [1]: 9
- Count Nerve Extract [1]: 17
- Count Neuron [1]: 8

Substance: QSTLGVHMLRVS
- Count Excised Nerve [1]: 6
- Count Nerve Extract [1]: 13
- Count Neuron [1]: 7

Substance: RTVITNEMLLLV
- Count Excised Nerve [1]: 7
- Count Nerve Extract [1]: 13
- Count Neuron [1]: 6

Substance: SDHTFKRVMFRW
- Count Excised Nerve [1]: 8
- Count Nerve Extract [1]: 15
- Count Neuron [1]: 7

Substance: SEPIEKGSRTIV
- Count Excised Nerve [1]: 7
- Count Nerve Extract [1]: 13
- Count Neuron [1]: 6

Substance: SGEYNLIKPNLL
- Count Excised Nerve [1]: 20
- Count Nerve Extract [1]: 27
- Count Neuron [1]: 7

Substance: SGWHLVMSMSIG
- Count Excised Nerve [1]: 6
- Count Nerve Extract [1]: 12
- Count Neuron [1]: 6

Substance: SLGSSFVQGGEL
- Count Excised Nerve [1]: 12
- Count Nerve Extract [1]: 19
- Count Neuron [1]: 7

Substance: SLQLWNSEKVTT
- Count Excised Nerve [1]: 10
- Count Nerve Extract [1]: 16
- Count Neuron [1]: 6

Substance: SPMANVWFNRLS
- Count Excised Nerve [1]: 7
- Count Nerve Extract [1]: 17
- Count Neuron [1]: 10

Substance: SSLYMNGWSRDQ
- Count Excised Nerve [1]: 23
- Count Nerve Extract [1]: 49
- Count Neuron [1]: 26

Substance: TDNGSFLGKLTS
- Count Excised Nerve [1]: 7
- Count Nerve Extract [1]: 14
- Count Neuron [1]: 7

Substance: TEWMVRASSIGE
- Count Excised Nerve [1]: 6
- Count Nerve Extract [1]: 14
- Count Neuron [1]: 8

Substance: TLNARDQLSING (nerve-binding peptide)
- Count Excised Nerve [1]: 7
- Count Nerve Extract [1]: 13
- Count Neuron [1]: 6

Substance: WDLPTLRKTKQA (Laminin 421/521-binding peptide)
- Count (Laminin 421/521): 114

Substance: WEEHRVEILPDV (Laminin 421/521-binding peptide)
- Count (Laminin 421/521): 38

Substance: WGANTTGRTHGG (Laminin 421/521-binding peptide)
- Count (Laminin 421/521): 40

Substance: WGLKLPH (Laminin 421/521-binding peptide)
- Count (Laminin 421/521): 117

Substance: WGWNGANMSPRG (Laminin 421/521-binding peptide)
- Count (Laminin 421/521): 31

Substance: WNANYGTMTRHA (Laminin 421/521-binding peptide)
- Count (Laminin 421/521): 92

Substance: WPMMQTR (Laminin 421/521-binding peptide)
- Count (Laminin 421/521): 29

Substance: WPVRNLL (Laminin 421/521-binding peptide)
- Count (Laminin 421/521): 67

Substance: WQWRSTELGYRY (Laminin 421/521-binding peptide)
- Count (Laminin 421/521): 36

Substance: WRSPLTT (Laminin 421/521-binding peptide)
- Count (Laminin 421/521): 30

Substance: WSPANGWRHQTI (Laminin 421/521-binding peptide)
- Count (Laminin 421/521): 36

Substance: WTKHNTPAHHLS (Laminin 421/521-binding peptide)
- Count (Laminin 421/521): 89

Substance: WVAAERR (Laminin 421/521-binding peptide)
- Count (Laminin 421/521): 115

Substance: YHLGPNQKMRTS (Laminin 421/521-binding peptide)
- Count (Laminin 421/521): 48

Substance: YTPRNQL (Laminin 421/521-binding peptide)
- Count (Laminin 421/521): 55
